From publication PMC10709440, “High-throughput ligand profile characterization in novel cell lines expressing seven heterologous insect olfactory receptors for the detection of volatile plant biomarkers” (Scientific Reports, 2023)
Where two headings read alike, the source gives them in different places.

Columns and labels:
[1] = biological target: T1, Drosophila OR10a (Drosophila melanogaster, UniProt Q9VYZ1); assay: Calcium ion fluorescence (GCaMP6) assay, OR10a stable HEK293 cell line; assay type: cell-based; settings: for OR10a response (VUAA1-normalized) at 1 μM / OR10a response (VUAA1-normalized) at 10 μM / OR10a response (VUAA1-normalized) at 100 μM: OR10a cell line; for OR10a response (VUAA1-normalized) at 1 μM: VOC concentration 1 μM; for OR10a response (VUAA1-normalized) at 10 μM: VOC concentration 10 μM; for OR10a response (VUAA1-normalized) at 100 μM: VOC concentration 100 μM
T1 construct: expressed in transfected cells
T1 sequence (Q9VYZ1 1-406): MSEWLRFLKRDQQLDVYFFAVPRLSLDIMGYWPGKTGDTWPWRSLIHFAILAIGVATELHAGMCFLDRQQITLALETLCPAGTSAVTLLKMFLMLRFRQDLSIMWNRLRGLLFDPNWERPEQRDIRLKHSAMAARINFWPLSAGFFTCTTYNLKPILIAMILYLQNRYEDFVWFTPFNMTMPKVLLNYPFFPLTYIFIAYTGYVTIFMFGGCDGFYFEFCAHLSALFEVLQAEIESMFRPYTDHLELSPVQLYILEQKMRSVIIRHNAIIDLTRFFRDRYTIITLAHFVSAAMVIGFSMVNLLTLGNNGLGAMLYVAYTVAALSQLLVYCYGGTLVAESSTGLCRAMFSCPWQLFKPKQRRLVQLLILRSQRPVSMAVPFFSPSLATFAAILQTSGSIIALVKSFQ
T1 sequence (Q9VNB5 1-486 partner): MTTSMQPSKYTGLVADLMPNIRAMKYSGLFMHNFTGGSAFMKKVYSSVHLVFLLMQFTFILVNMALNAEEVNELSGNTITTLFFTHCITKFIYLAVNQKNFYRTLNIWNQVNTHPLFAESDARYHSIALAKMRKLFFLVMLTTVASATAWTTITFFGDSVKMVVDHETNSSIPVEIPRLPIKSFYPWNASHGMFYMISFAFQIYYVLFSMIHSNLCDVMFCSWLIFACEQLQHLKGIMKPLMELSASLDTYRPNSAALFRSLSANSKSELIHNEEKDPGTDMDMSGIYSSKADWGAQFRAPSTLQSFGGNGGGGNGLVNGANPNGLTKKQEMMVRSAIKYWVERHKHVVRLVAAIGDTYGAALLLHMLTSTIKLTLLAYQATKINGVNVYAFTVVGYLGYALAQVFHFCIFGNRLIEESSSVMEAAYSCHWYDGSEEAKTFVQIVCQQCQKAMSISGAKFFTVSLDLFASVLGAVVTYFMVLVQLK
Description: (§1) These VUAA1 normalized ∆F values were used to compare the different receptors and ligands.
(§2) The concentration-dependent effect of the reference ligands on their cognate cell lines was examined in more detail. Twelve different ligand concentrations were measured on each cell line in an overall 0.01 μM to 100 μM concentration range with 5 repetitions with three technical replicates each time.
(§3) Twelve thousand to 18,000 cells were plated into each well of a black wall, transparent bottom 384-well microplate (Greiner) 48 h or 72 h before the measurements and were simultaneously treated with 1 μg/mL doxycycline. […] The plate has 24 columns, thus we could record responses in up to eight different cell lines in each plate. On the day of the experiment, the growth medium was replaced with 20 µL assay buffer/well (140 mM NaCl, 5 mM KCl, 2 mM CaCl2, 1 mM MgCl2, 5 mM HEPES-Na, 20 mM glucose, pH 7.3, 340 mOsm). […] Baseline fluorescence (F0) was recorded for 5 s, after which 7 µL VOC buffer (140 mM NaCl, 5 mM KCl, 2 mM CaCl2, 1 mM MgCl2, 5 mM HEPES-Na, 31 mM glucose, 0.1% DMSO, pH 7.3, 340 mOsm) was injected into each well in one row and the fluorescence response was recorded for an additional 30 s, at a rate of one read/sec. VOC solutions (VOC buffer with 4× concentration of the final measured VOC concentration, 9 µL/well was injected) were measured on the same wells in a second round with the same protocol. Each individual concentration of a specific VOC sample was recorded in three wells for the same cell line on the same microplate. The raw data were exported in xls file format, F0 and FMAX values, and the fluorescence intensity changes (∆F) were calculated in Excel (Microsoft) (Supplementary file Data summary.xlsx) using the following equation: ΔF=FMAX-F0/F0 (see also Fig. 1C). On each plate, we recorded the response of each cell line to 50 µM VUAA1. The average of these ∆F values of each cell line were used to calculate the VUAA1-normalized values for the rest of the plate, by dividing VOC response ∆F values by the average VUAA1 response ∆F value of the corresponding OR cell line. Each VOC-OR combination was measured three times as technical replicates. […] The average of these replicates were used as one ∆F and VUAA1-normalized ∆F in the following analysis.
(§4) In the next rows we tested the reference VOCs (or other VOCs known to activate the corresponding cell lines), in order to test if all cell lines are responsive. The remaining rows were used to test VOCs with unknown effect.
(§5) The recorded FMAX, F0, ∆F, VUAA1-normalized ∆F values, as well as the OR name, the name of the tested sample, and the final concentration for each well were copied into supplementary file Data summary.xlsx, that was used to summarize all the plates recorded. Here, the averages of the measurements were calculated for each receptor-VOC-concentration combination.

[2] = biological target: T2, Drosophila OR71a (Drosophila melanogaster, UniProt Q9VUK5); assay: Calcium ion fluorescence (GCaMP6) assay, OR71a stable HEK293 cell line; assay type: cell-based; settings: for Average response / OR71a response (VUAA1-normalized) at 1 μM / OR71a response (VUAA1-normalized) at 10 μM / OR71a response (VUAA1-normalized) at 100 μM: OR71a cell line; for Average response: VUAA1-normalized response, mean of biological replicates; for OR71a response (VUAA1-normalized) at 1 μM: VOC concentration 1 μM; for OR71a response (VUAA1-normalized) at 10 μM: VOC concentration 10 μM; for OR71a response (VUAA1-normalized) at 100 μM: VOC concentration 100 μM
T2 construct: expressed in transfected cells
T2 sequence (Q9VUK5 1-378): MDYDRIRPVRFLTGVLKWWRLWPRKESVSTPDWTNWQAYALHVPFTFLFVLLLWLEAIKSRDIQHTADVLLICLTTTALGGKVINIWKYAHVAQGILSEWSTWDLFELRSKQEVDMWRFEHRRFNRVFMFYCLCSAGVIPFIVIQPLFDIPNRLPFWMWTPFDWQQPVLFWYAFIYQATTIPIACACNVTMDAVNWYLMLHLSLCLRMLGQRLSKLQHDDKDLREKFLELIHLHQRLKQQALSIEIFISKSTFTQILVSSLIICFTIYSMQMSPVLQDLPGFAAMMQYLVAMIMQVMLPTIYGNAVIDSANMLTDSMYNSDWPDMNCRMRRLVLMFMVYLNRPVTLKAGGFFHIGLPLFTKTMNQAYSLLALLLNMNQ
T2 sequence (Q9VNB5 1-486 partner): T1 sequence (Q9VNB5 1-486 partner)
Description: as §1, §2, §3, §4, §5

[3] = HEK293, read-out: OR10a Average response (VUAA1-normalized), 1 μM VOC, 50 μM VUAA1 = 1, responses not exceeding 0.05 considered 0
[4] = HEK293, read-out: OR10a Average response (VUAA1-normalized), 10 μM VOC, 50 μM VUAA1 = 1, responses not exceeding 0.05 considered 0
[5] = HEK293, read-out: OR10a Average response (VUAA1-normalized), 100 μM VOC, 50 μM VUAA1 = 1, responses not exceeding 0.05 considered 0
[6] = ligand concentration 1 (unit not given), threshold 0.05, below shown as 0
[7] = ligand concentration 10 (unit not given), threshold 0.05, below shown as 0
[8] = ligand concentration 100 (unit not given), threshold 0.05, below shown as 0
[9] = HEK293, read-out: OR71a response (VUAA1-normalized response)
[10] = ligand concentration 1 (unit not given), 0.05 threshold, values below shown as 0
[11] = ligand concentration 10 (unit not given), 0.05 threshold, values below shown as 0
[12] = ligand concentration 100 (unit not given), 0.05 threshold, values below shown as 0

CC1=CCC2CC1C2(C)C (stereo not drawn) [alpha-pinene] was tested, and the activation at 1 µM [1, 3] was 5%, the activation at 10 µM [1, 4] was 0% and the activation at 100 µM [1, 5] was 7.44%. It also gave an activation at 1 µM ([1]; HEK293, read-out: OR10a response (VUAA1-normalized response), VOC concentration 1 μM) of 0%, an activation at 10 µM ([1]; HEK293, read-out: OR10a response (VUAA1-normalized response), VOC concentration 10 μM) of 0% and an activation at 100 µM ([1]; HEK293, read-out: OR10a response (VUAA1-normalized response), VOC concentration 100 μM) of 7.44%. For the same compound, the “DF norm AVERAGE OR10a” value [1, 6] was 0, the “DF norm AVERAGE OR10a” value [1, 7] was 0 and the “DF norm AVERAGE OR10a” value [1, 8] was 0.07438. For the same compound, the activation at 1 µM [2, 9] was 0%, the activation at 10 µM [2, 9] was 0% and the activation at 100 µM [2, 9] was 0%. It also gave an Average response ([2]; cc. 1 µM) of 0.0368, an Average response ([2]; cc. 10 µM) of 0.00 and an Average response ([2]; cc. 100 µM) of 0.00. The “DF norm AVERAGE OR71a” value [2, 6] was 0, the “DF norm AVERAGE OR71a” value [2, 7] was 0 and the “DF norm AVERAGE OR71a” value [2, 8] was 0.
Compound Cc1ccc(C(C)C)cc1 [p-cymene] has an activation at 1 µM [1, 3] of 0%, an activation at 10 µM [1, 4] of 0% and an activation at 100 µM [1, 5] of 0%. For the same compound, the “OR10a response (VUAA1-normalized) at 1 μM” value [1] was 0.00, the “OR10a response (VUAA1-normalized) at 10 μM” value [1] was 0.00 and the “OR10a response (VUAA1-normalized) at 100 μM” value [1] was 0.00. The “DF norm AVERAGE OR10a” value [1, 6] was 0, the “DF norm AVERAGE OR10a” value [1, 7] was 0 and the “DF norm AVERAGE OR10a” value [1, 8] was 0. The “OR71a response (VUAA1-normalized) at 1 μM” value [2] was 0.00, the “OR71a response (VUAA1-normalized) at 10 μM” value [2] was 0.00 and the “OR71a response (VUAA1-normalized) at 100 μM” value [2] was 0.00. It also gave an Average response ([2]; cc. 1 µM) of 0.00, an Average response ([2]; cc. 10 µM) of 0.023 and an Average response ([2]; cc. 100 µM) of 0.00. The “DF norm AVERAGE OR71a” value [2, 6] was 0, the “DF norm AVERAGE OR71a” value [2, 7] was 0 and the “DF norm AVERAGE OR71a” value [2, 8] was 0.
With Cc1ccccc1 [toluene] the activation at 1 µM [1, 3] was 3%, the activation at 10 µM [1, 4] was 0% and the activation at 100 µM [1, 5] was 7%. The “OR10a response (VUAA1-normalized) at 1 μM” value [1] was 0.00, the “OR10a response (VUAA1-normalized) at 10 μM” value [1] was 0.00 and the “OR10a response (VUAA1-normalized) at 100 μM” value [1] was 0.07. For the same compound, the “DF norm AVERAGE OR10a” value [1, 10] was 0, the “DF norm AVERAGE OR10a” value [1, 11] was 0 and the “DF norm AVERAGE OR10a” value [1, 12] was 0.07043. The “OR71a response (VUAA1-normalized) at 1 μM” value [2] was 0.00, the “OR71a response (VUAA1-normalized) at 10 μM” value [2] was 0.00 and the “OR71a response (VUAA1-normalized) at 100 μM” value [2] was 0.00. It also gave an Average response ([2]; cc. 1 µM) of 0.00, an Average response ([2]; cc. 10 µM) of 0.00 and an Average response ([2]; cc. 100 µM) of 0.00. The “DF norm AVERAGE OR71a” value [2, 10] was 0, the “DF norm AVERAGE OR71a” value [2, 11] was 0 and the “DF norm AVERAGE OR71a” value [2, 12] was 0.
With CC1=CCC23CC1C(C)(C)C2CCC3C (stereo not drawn) [α-funebrene] the activation at 1 µM ([1]; HEK293, 1 μM VOC, 50 μM VUAA1 = 1, responses not exceeding 0.05 considered 0, read-out: OR10a Average response (VUAA1-normalized)) was 0%, the activation at 10 µM ([1]; HEK293, 10 μM VOC, 50 μM VUAA1 = 1, responses not exceeding 0.05 considered 0, read-out: OR10a Average response (VUAA1-normalized)) was 0% and the activation at 100 µM ([1]; HEK293, 100 μM VOC, 50 μM VUAA1 = 1, responses not exceeding 0.05 considered 0, read-out: OR10a Average response (VUAA1-normalized)) was 2.42%. For the same compound, the “OR10a response (VUAA1-normalized) at 1 μM” value [1] was 0.00, the “OR10a response (VUAA1-normalized) at 10 μM” value [1] was 0.00 and the “OR10a response (VUAA1-normalized) at 100 μM” value [1] was 0.00. The “DF norm AVERAGE OR10a” value [1, 10] was 0, the “DF norm AVERAGE OR10a” value [1, 11] was 0 and the “DF norm AVERAGE OR10a” value [1, 12] was 0. For the same compound, the “OR71a response (VUAA1-normalized) at 1 μM” value [2] was 0.00, the “OR71a response (VUAA1-normalized) at 10 μM” value [2] was 0.00 and the “OR71a response (VUAA1-normalized) at 100 μM” value [2] was 0.00. It also gave an Average response ([2]; cc. 1 µM) of 0.00, an Average response ([2]; cc. 10 µM) of 0.00 and an Average response ([2]; cc. 100 µM) of 0.00. For the same compound, the “DF norm AVERAGE OR71a” value [2, 10] was 0, the “DF norm AVERAGE OR71a” value [2, 11] was 0 and the “DF norm AVERAGE OR71a” value [2, 12] was 0.
